{"source": "patent US10662194B2", "about": "“Substituted 6-anilino-9-heterocyclylpurine derivatives for inhibition of plant stress” (UNIVERZITA PALACKEHO V OLOMOUCI, priority 2014, dated 2020)", "key": {"[1]": {"test_system": "wild-type Arabidopsis plants", "test": "In vitro root growth of wild-type Arabidopsis plants", "assay_type": "in vivo", "settings": "0.1 μM in MS medium, FIG. 6", "protocol": "As shown in previous example presence of compound 12 in the growth medium has positive effect on the root growth of cytokinin-deficient Arabidopsis plants. This effect was further studied using wild-type Arabidopsis plants and compared with biologically and structurally relevant compounds, a cytokinin BAP and a CKX inhibitor INCYDE. […] Arabidopsis seedlings were grown in vitro on a standard MS medium containing 0.1 μM cytokinin BAP, the same concentration of compound 12 and the same concentration of CKX inhibitor INCYDE (2-chloro-6-(3-methoxyanilino)purine)."}, "[2]": {"test_system": "Salmonella typhimurium strains TA100 and TA98", "test": "Ames MPF 98/100 Mutagenicity Assay", "assay_type": "cell-based", "settings": "up to 100 μM, +/−S9, FIG. 12", "protocol": "The compound 12 was tested using Ames MPF™ 98/100 Mutagenicity Assay kit (Aniara, Ohio) that is employing Salmonella typhimurium strains TA100 (for the detection of base substitution mutations) and TA98 (for the detection of frameshift mutations) according to the instructions for use."}, "[3]": {"test": "Compound solubility limit in the test medium", "assay_type": "physicochemical", "settings": "read-out: highest concentration accessible due to the compound solubility", "from_the_text": "Maintenance of genome integrity is essential for homeostasis and survival as impaired DNA damage response may predispose to grave pathologies such as neurodegenerative and immunodeficiency syndromes, cancer and premature aging (Mistrik et al., 2009). The potential effect of compound 12 on stimulation of DNA breakage was thus further estimated through analysis of phosphorylated histone H2AX (gamma-H2AX) quantified by optimized automated single-cell image analysis (Mistrik et al., 2009). The compound 12 was tested in concentration of 100 μM, the highest concentration accessible due to the compound solubility. Induction of DNA breakage was tested using human U2OS cells. The U2OS cells were cultivated at standard cultivation condition (37° C., 5% CO2). As a positive control, cells were irradiated by roentgen radiation (Baltobloc) (0.5 Gy-2 Gy), one hour later fixed and stained for γ-H2AX, a well established marker of the DNA damage. Parallel samples were treated by compound 12 for 24 hours, fixed and also stained for γ-H2AX. Microscopy analysis followed by computer based signal quantification was performed as described previously (Mistrik et al., 2009)."}, "[4]": {"test_system": "shoot rosettes of Arabidopsis", "test": "Leaf chlorophyll degradation in dark-incubated shoot rosettes", "assay_type": "in vivo", "settings": "6 days in the dark", "protocol": "The effect of the compound 12 on retention of chlorophyll in the dark treated plants was tested using app. 18 DAG (days after germination) old Arabidopsis plants grown in vitro on standard MS medium (16 h/8 h light/dark regime, light intensity 120 μmol·m^−l·s^−1). Shoots of the plants were excised from the roots and the whole rossetes were placed into 6-well plate (one rosete per well) into water (3 mL per well) containing 0.01% DMSO (solvent control), or compound 12, cytokinin BAP and CKX inhibitor INCYDE (2-chloro-6-(3-methoxyanilino)purine), in concentrations of 0.01, 0.1, 1 and 10 μM. The plates were then incubated in the dark for 6 days at 25° C. After incubation chlorophyll from each rosette was extracted into 1.8 mL of 80% ethanol, during 30 min of heating to 80° C. The chlorophyll content in extracts was measured spectrofotometricaly at 665 nm. […] In this concentration the rosettes kept around 95% of chlorophyll."}, "[5]": {"test": "Calcein AM viability/cytotoxicity assay, BJ", "assay_type": "cell-based", "settings": "human, BJ foreskin fibroblasts, FIG. 11, read-out: IC50, concentration reducing number of viable cells to 50%", "from_the_text": "Absence of toxic effects against mammalian (especially human) cell lines in a wide concentration range is one of the requirements on compounds intended for use in agriculture and medicine. Because toxic compounds negatively influence metabolic processes in cells, many standard cytotoxicity assays are based on measurement of metabolisation rate of various artificial substrates. Resulting product is then quantified e.g. by means of spectrometry. The assays can be easily modified for use in 96-well plates. For evaluation of cytotoxic effect of compounds of this invention, a microtiter assay based on quantification of metabolisation of Calcein AM was used. The assay is widely used in drug screening programs and in chemosensitivity testing. In live cells, Calcein AM is enzymatically hydrolysed and accumulation of resulting calcein is manifested by green fluorescence. The cytotoxicity of the studied compounds was determined with human fibroblast lines MRC-5 (lung fibroblasts) and BJ (foreskin fibroblasts). […] The fluorescence of the live cells was measured at 485 nm/538 nm (excitation/emission) with a Fluoroskan Ascent microplate reader (Labsystems). […]"}}, "data": [{"smiles": "COc1cccc(Nc2nc(Cl)nc3c2ncn3C2CCCCO2)c1", "note": "(stereo not drawn) [compound 12, 2-chloro-6-(3-methoxyanilino)-9-(tetrahydropyran-2-yl)purine]", "values": [{"measurement": "root growth", "setting": "[1]", "result": "positive effect on the root length and lateral branching"}, {"measurement": "mutagenic potential in Ames test", "setting": "[2]", "result": "did not score positively"}, {"measurement": "solubility", "setting": "[3]", "result": 100, "unit": "µM"}, {"measurement": "chlorophyll kept in rosettes", "setting": "[4]; 1 μM", "result": "around 95%"}, {"measurement": "retention of chlorophyll, activity versus BAP and INCYDE", "setting": "[4]; 0.01-10 μM, FIG. 7", "result": "highest activity in 1 μM concentration"}, {"measurement": "IC50 at 72 h", "setting": "[5]", "result": "> 100", "unit": "µM"}]}]}
